pEC50: −log10 of the molar value. Structures can show the parent of a compound that is named as a salt.
Tests used:
[1] = molecular target: T1, hα7-wt nAChR (Homo sapiens, UniProt P36544); test: Ca2+ flux imaging (FDSS), potentiation of choline response; type: cell-based; details: for pEC50: hα7-wt nAChR-expressing GH4C1 cells, potentiation of 100 μM choline, compounds 0.01 μM to 30 μM; for Emax: GH4-C1, maximal effect, efficacy of 100 μM choline defined as 100% in the absence of a PAM, GH4C1 cells
T1 construct: expressed in transfected cells; host or cells: GH4C1 cells (recombinant, stably over-expressing)
T1 sequence (P36544 23-502): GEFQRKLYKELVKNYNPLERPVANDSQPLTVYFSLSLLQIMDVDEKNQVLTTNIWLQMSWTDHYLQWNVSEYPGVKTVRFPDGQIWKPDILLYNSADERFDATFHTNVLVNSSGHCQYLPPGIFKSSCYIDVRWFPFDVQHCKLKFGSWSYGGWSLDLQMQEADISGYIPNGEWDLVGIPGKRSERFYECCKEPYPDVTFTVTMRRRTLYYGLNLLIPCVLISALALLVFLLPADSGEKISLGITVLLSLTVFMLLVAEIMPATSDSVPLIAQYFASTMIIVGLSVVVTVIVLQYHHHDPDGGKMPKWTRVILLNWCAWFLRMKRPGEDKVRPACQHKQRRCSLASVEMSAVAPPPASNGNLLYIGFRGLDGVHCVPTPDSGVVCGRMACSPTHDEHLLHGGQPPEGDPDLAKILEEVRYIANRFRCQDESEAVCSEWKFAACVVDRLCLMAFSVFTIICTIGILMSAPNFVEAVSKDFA
Method: Ca^2+ Flux Imaging (FDSS)
• Hanks buffered saline solution (HBSS, Invitrogen, Belgium), supplemented with 10 mM HEPES (Invitrogen, Belgium), CaCl2 to a final concentration of 5 mM, 0.1% Bovine serum albumin (Sigma-Aldrich NV, Belgium). b) Calcium-Sensitive Dye—Fluo-4AM • Fluo-4AM (Molecular Probes, USA) was dissolved in DMSO containing 10% Pluronic acid (Molecular Probes, USA) to give a stock solution which was diluted in assay buffer supplemented with 5 mM probenicid (Sigma, Aldrich NV, Belgium) to give a final concentration of 2 μM. c) 384-Well Plates • Black 384 well plate black/clear plates, PDL pre-coated (Corning, Incorporated, USA) d) Calcium Flux Measurement • A Functional drug screening system (FDSS, Hamamatsu) was used to measure intracellular free-calcium flux signals. Method
Monolayers of hα7-wt nAChR-expressing GH4C1 cells were grown in multi-well plates, in particular black-sided, transparent bottomed 384 well plates coated with poly-D-lysine for 24 hours prior to loading with a fluorescent calcium indicator, in a particular embodiment loading with fluo-4AM for up to 120 minutes.
PAM activity was detected in real time by applying the compound to be tested to the loaded cells along with a α7 nicotinic receptor agonist during constant monitoring of the cellular calcium mobilization by fluorescence in a FDSS. Compounds giving peak fluorescent responses greater than the response due to agonist alone, were considered to be α7 nAChR PAM's. In a particular embodiment, the α7 nicotinic receptor agonist was choline, a more particular embodiment choline applied at a sub-maximal concentration of 100 μM. In a further setting of the present invention the compounds to be tested were applied prior to the α7 nicotinic receptor agonist, in a particular embodiment up to 10 minutes prior to the agonist.
A control response to choline was calculated on each plate from the difference in peak in fluorescence in wells receiving either choline or assay buffer alone. Compounds of the present invention were tested at a concentration range from 0.01 μM to 30 μM. Compounds were considered to have an interesting activity when they potentiated the choline signal at least with 200% when tested at a concentration of 30 μM (the efficacy of 100 μM choline was defined as 100% in the absence of a PAM).
EC50 values (potency), maximal effect (% efficacy), and Hill slopes were estimated by fitting the sigmoidal equation to the data using GraphPad Prism (GraphPad Software, Inc., San Diego, Calif.). An EC50 (or pEC50) was determined as a concentration relating to half the maximal effect, when a clear sigmoidal curve with top plateau was obtained.

[2] = molecular target: T1, hα7-wt nAChR; test: Whole-cell voltage-clamp recording, PAM type classification; type: cell-based; parameters: key: Type 1 compounds enhance the effect size of the current elicited by 1 mM choline but minimally alter the kinetics of the receptor.; Type 2 compounds enhance the effect size of the current elicited by 1 mM choline while reducing the rate and/or the extent of desensitization.; Type 3 compounds enhance the effect size of the current elicited by 1 mM choline. When tested at higher concentrations up to 10 μM they completely inhibit desensitization, in particular a 1 mM choline application of 250 milliseconds.; Type 4 compounds allow for an initial desensitization of the receptor followed by a re-opening of the receptor during agonist application; details: qualitative kinetic properties; 1 mM choline; hα7-wt nAChR-expressing GH4C1 cells
Method: The compounds of the present invention are classified as type 1-4, based on qualitative kinetic properties, as determined by whole-cell voltage-clamp recordings. This classification is based on the effect of an α7 PAM compound, as described hereinbefore, on the signal elicited by an agonist application. In particular, said agonist is choline at a concentration of 1 mM. In a preferred experimental setting, said α7 PAM compound and choline are simultaneously applied to the cell, as described hereinafter. Desensitization is defined as the closure of the receptor upon activation during the application of the agonist in whole-cell voltage-clamp electrophysiology measurements seen as the reduction of the […] current after initial activation by the agonist.
The definition of the PAM types 1-4 is described hereinafter: • Type 1 compounds enhance the effect size of the current elicited by 1 mM choline but minimally alter the kinetics of the receptor. In particular, the rate and the extent of desensitization, elicited by the agonist, is not affected. The compound-modulated response to 1 mM choline, therefore, is a close to linear scaling of the 1 mM choline response in absence of the α7 PAM compound. • Type 2 compounds enhance the effect size of the current elicited by 1 mM choline while reducing the rate and/or the extent of desensitization. • Type 3 compounds enhance the effect size of the current elicited by 1 mM choline. […] At low-potency concentrations of the α7 PAM compound, the agonist-induced activation, which is followed by desensitization, can still be separated from the compound-induced re-opening as an initial inward current-maximum. At higher potency concentrations of the α7 PAM compound, the re-opening occurs faster than the closure due to desensitization so that the initial current-maximum disappears.
The compounds of the present invention also have a potentiating effect on the response to choline when measured by whole-cell voltage-clamp electrophysiology in GH4C1 cells stably over-expressing the human wild-type α7 receptor, as described hereinafter.
Whole-Cell Voltage-Clamp Recording
Whole-cell voltage-clamp recording from mammalian cells has provided a powerful means of assessing the function of membrane proteins thought to be subunits of ligand-gated ion channels. Activation of such proteins by endogenous or exogenous ligands causes opening of a pore associated with the receptor through which ions flow down their electrochemical gradient. In the case of the hα7-wt nAChR-expressing GH4C1 recombinant cell line the preferential permeability to calcium of this receptor means that calcium flows into the cell upon activation by ACh, choline and other nicotinic ligands giving rise to a calcium current. Since this receptor rapidly desensitizes in the presence of an agonist it is important that an application system is used which is capable of very rapid switching of solutions (<100 ms) to prevent partial or full desensitisation of receptor responses coincident with the time of agonist application. Consequently, a second convenient technique to assess the enhancement of nicotinic efficacy is whole-cell voltage-clamp recording from hα7-wt nAChR-expressing GH4C1 cells coupled with a rapid-application system.
• The external recording solution consisted of 152 mM NaCl, 5 mM KCl, 1 mM MgCl2, 1 mM Calcium, 10 mM HEPES; pH 7.3. The internal recording solution consisted of 140 mM CsCl, 10 mM HEPES, 10 mM EGTA, 1 mM MgCl2, pH 7.3. • b) Patch-clamp recording was carried out using a Patch-clamp amplifier (Multiclamp 700A, Axon Instruments, CA, USA). The membrane potential of hα7-wt nAChR-expressing GH4C1 cells was voltage-clamped in the whole cell configuration (Hamill et al, 1981) with a borosilicate glass electrode of 1.5-3 MΩ tip resistance when filled with the internal recording solution. […]

| Compound | melting point [°C] | pEC50 [1] | PAM_type [2] | Emax [1] [%] |
| --- | --- | --- | --- | --- |
| CCCCC(O)Cn1nc(Nc2ccc(F)c(F)c2)nc1-c1ccnc(C)c1 (racemic) [Compound E3, 1-[3-(3,4-Difluoro-phenylamino)-5-(2-methyl-pyridin-4-yl)-[1,2,4]triazol-1-yl]-hexan-2-ol] | 137.96 |  |  |  |
| CCC(O)Cn1nc(Nc2ccc(F)c(F)c2)nc1-c1ccnc(C)c1 (single isomer, unassigned) [Compound E6] | 142.72 | 6.02 | 2 |  |
| CCCC(O)Cn1nc(Nc2ccc(F)c(F)c2)nc1-c1cc(C)nc(C)c1 (single isomer, unassigned) [Compound E13] | 141.14 | 6.61 | 1 | 490 |
| CCCC(O)Cn1nc(Nc2ccc(F)c(F)c2)nc1-c1cc(C)nc(C)c1 (single isomer, unassigned) [Compound E14] | 139.48 | 6.50 | 2 |  |
| CCCC(O)Cn1nc(Nc2ccc(F)c(F)c2)nc1-c1ccnc(C)c1 (single isomer, unassigned) [Compound E15] | 133.1 | 6.17 | 1 |  |
| CCCC(O)Cn1nc(Nc2ccc(F)c(F)c2)nc1-c1ccnc(C)c1 (single isomer, unassigned) [Compound E16] | 134.82 | 6.38 | 2 |  |
| CCC(O)Cn1nc(Nc2cccc(Cl)c2)nc1-c1cc(C)nc(C)c1 (single isomer, unassigned) [Compound E18] |  | 5.89 | 1 |  |
| CCC(O)Cn1nc(Nc2cc(OC)cc(C(F)(F)F)c2)nc1-c1ccnc(C)c1 (single isomer, unassigned) [Compound E20] | 120.54 | 6.67 | 4 |  |
| CCC(O)Cn1nc(Nc2cccc(Cl)c2)nc1-c1cc(C)nc(C)c1 (single isomer, unassigned) [Compound E21] |  | 6.08 | 2 |  |
| CCCC(O)Cn1nc(Nc2cccc(Cl)c2)nc1-c1cc(C)nc(C)c1 (single isomer, unassigned) [Compound E23] | 127.44 | 6.05 | 1 |  |
| CCCC(O)Cn1nc(Nc2cccc(Cl)c2)nc1-c1cc(C)nc(C)c1 (single isomer, unassigned) [Compound E24] |  | 6.07 | 2 |  |
| CCC(O)Cn1nc(Nc2ccc(F)c(F)c2)nc1-c1ccnc(C)c1 (single isomer, unassigned) [Compound E26] | 145.29 | 6.11 | 1 | 580 |
| CCC(O)Cn1nc(Nc2cc(OC)cc(C(F)(F)F)c2)nc1-c1ccnc(C)c1 (single isomer, unassigned) [Compound E28] | 117.16 | 5.75 | 2 |  |
| CCCCC(O)Cn1nc(Nc2ccc(F)c(F)c2)nc1-c1cc(C)nc(C)c1 (single isomer, unassigned; (-)) [Compound E4, (−)-1-[3-(3,4-Difluoro-phenylamino)-5-(2,6-dimethyl-pyridin-4-yl)-[1,2,4]triazol-1-yl]-hexan-2-ol] | 134.6 | 6.68 |  |  |
| CC[C@H](O)Cn1nc(Nc2ccc(F)c(F)c2F)nc1-c1ccnc(C)c1 [Compound E31, (S)-1-[5-(2-Methyl-pyridin-4-yl)-3-(2,3,4-trifluoro-phenylamino)-[1,2,4]-triazol-1-yl]-butan-2-ol] |  | 6.26 | 2 |  |
| CC[C@H](O)Cn1nc(Nc2ccc(F)c(F)c2F)nc1-c1cc(C)nc(C)c1 [Compound E32, (S)-1-[5-(2,6-Dimethyl-pyridin-4-yl)-3-(2,3,4-trifluoro-phenylamino)-[1,2,4]triazol-1-yl]-butan-2-ol] |  | 6.29 | 2 |  |
| CC[C@H](O)Cn1nc(Nc2ccc(F)c(F)c2F)nc1-c1cc(C)nc(C)c1.Cl [Compound E33, (S)-1-[5-(2,6-Dimethyl-pyridin-4-yl)-3-(2,3,4-trifluoro-phenylamino)-[1,2,4]triazol-1-yl]-butan-2-ol HCl salt] | 237.44 | 6.36 |  |  |
| CC[C@H](O)Cn1nc(Nc2cccc(Cl)c2F)nc1-c1cc(C)nc(C)c1 [Compound E34, (S)-1-[3-(3-Chloro-2-fluoro-phenylamino)-5-(2,6-dimethyl-pyridin-4-yl)-[1,2,4]triazol-1-yl]-butan-2-ol] |  | 6.50 | 2 |  |
| CC[C@H](O)Cn1nc(Nc2cccc(Cl)c2F)nc1-c1cc(C)nc(C)c1 [Compound E35, (S)-1-[3-(3-Chloro-2-fluoro-phenylamino)-5-(2,6-dimethyl-pyridin-4-yl)-[1,2,4]-triazol-1-yl]-butan-2-ol HCl salt] |  | 6.33 |  |  |
| CC[C@H](O)Cn1nc(Nc2cc(F)cc(OC)c2)nc1-c1ccnc(C)c1 [Compound E36, (S)-1-[3-(3-Fluoro-5-methoxy-phenylamino)-5-(2-methyl-pyridin-4-yl)-[1,2,4]triazol-1-yl]butan-2-ol HCl salt] |  | 5.68 | 2 |  |
| CC[C@H](O)Cn1nc(Nc2cc(F)cc(OC)c2)nc1-c1cc(C)nc(C)c1.Cl [Compound E37, (S)-1-[5-(2,6-Dimethyl-pyridin-4-yl)-3-(3-fluoro-5-methoxy-phenylamino)-[1,2,4]triazol-1-yl]-butan-2-ol HCl salt] |  | 5.80 | 2 |  |

Source: patent US8440701B2, “Trisubstituted 1,2,4 triazoles” (Janssen Pharmaceutica NV, priority 2007, dated 2013)
